Here are results for 60 compounds from US10065950B2, “Substituted thiazoles as HIV integrase inhibitors” (Japan Tobacco Inc., priority 2010, dated 2018).

In this assay the target is HIV-1 pNL4-3 integrase (Human immunodeficiency virus type 1 group M subtype B (isolate NY5) (HIV-1), UniProt P12497). Briefly: Determination of enzyme (HIV integrase) inhibitory activity. The class given is biochemical. Particulars: calculated from inhibition rate (fluorescence). The method in brief:
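Full-length pNL4-3 integrase from E. coli (0.75 μM stock) reacted 60 min at 37° C with compound and biotinylated donor DNA bound to streptavidin plates, in MOPS buffer with 5 mM MgCl2 and 10% DMSO. Digoxigenin-labelled target DNA (25 nM stock) then added for 20 min; strand transfer read by peroxidase anti-digoxigenin fluorescence (Ex 325/Em 420 nm).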

One may read the IC50 as the concentration that inhibits the measured activity by half. On to `CC(C)N1C[C@](C)(C(=O)N2CC[C@H](O)C2)n2cc(-c3nnc(Cc4ccc(F)cc4)s3)c(=O)c(O)c2C1=O` [Example 204], for which the IC50 was 13 nM.

Consider `CC(C)N1C[C@](C)(C(=O)N2CC[C@@H](O)C2)n2cc(-c3nnc(Cc4ccc(F)cc4)s3)c(=O)c(O)c2C1=O` [Example 205], for which the 50% inhibitory concentration (IC50) was 13 nM.

Consider `COC[C@@H]1Cn2cc(-c3nnc(Cc4ccc(F)cc4)s3)c(=O)c(O)c2C(=O)N1C(C)C1CC1` (stereo partly drawn) [Example 206], for which the half-maximal inhibitory concentration (IC50) is 5.9 nM.

Regarding `CCC(=O)N(C)C[C@@]1(C)CN(C(C)C)C(=O)c2c(O)c(=O)c(-c3nnc(Cc4ccc(F)cc4F)s3)cn21` [Example 207], the concentration for half-maximal inhibition (IC50) was 24 nM.

Take `CC(C)N1C[C@](C)(C(=O)N2CC(O)C2)n2cc(-c3nnc(Cc4ccc(F)cc4)s3)c(=O)c(O)c2C1=O` [Example 208]: the concentration for half-maximal inhibition (IC50) was 12 nM.

As for `COC1CN(C(=O)[C@@]2(C)CN(C(C)C)C(=O)c3c(O)c(=O)c(-c4nnc(Cc5ccc(F)cc5)s4)cn32)C1` [Example 209], the IC50 is 12 nM.

Regarding `CC(C)N1C[C@](C)(CN(C)S(C)(=O)=O)n2cc(-c3nnc(Cc4ccc(F)cc4F)s3)c(=O)c(O)c2C1=O` [Example 210], the IC50 is 23 nM.

Consider `CO[C@@H]1CCN(C(=O)[C@@]2(C)CN(C(C)C)C(=O)c3c(O)c(=O)c(-c4nnc(Cc5ccc(F)cc5)s4)cn32)C1` [Example 211], for which the IC50 is 16 nM.

Regarding `CO[C@H]1CCN(C(=O)[C@@]2(C)CN(C(C)C)C(=O)c3c(O)c(=O)c(-c4nnc(Cc5ccc(F)cc5)s4)cn32)C1` [Example 212], the 50% inhibitory concentration (IC50) was 14 nM.

On to `CO[C@@H]1CCN(C(=O)[C@@]2(C)CN(C(C)C)C(=O)c3c(O)c(=O)c(-c4ncc(Cc5ccc(F)cc5)s4)cn32)C1` [Example 213], for which the IC50 was 15 nM.

Turning to `CO[C@H]1CCN(C(=O)[C@@]2(C)CN(C(C)C)C(=O)c3c(O)c(=O)c(-c4ncc(Cc5ccc(F)cc5)s4)cn32)C1` [Example 214], the IC50 was 16 nM.

`COC[C@@H]1Cn2cc(-c3ncc(Cc4ccc(F)cc4)s3)c(=O)c(O)c2C(=O)N1CC1CC1` [Example 217]: the 50% inhibitory concentration (IC50) was 5.3 nM.

In the case of `CCOC[C@@H]1Cn2cc(-c3ncc(Cc4ccc(F)cc4)s3)c(=O)c(O)c2C(=O)N1CC1CC1` [Example 218], the IC50 is 6.5 nM.

For `CCOc1cc(F)ccc1Cc1nnc(-c2cn3c(c(O)c2=O)C(=O)N(C(C)C)C[C@@H]3COC)s1` [Example 219], the concentration for half-maximal inhibition (IC50) is 15 nM.

Regarding `COC[C@H]1CN(C(C)C)C(=O)c2c(O)c(=O)c(-c3nnc(Cc4c(F)cc(F)cc4OC)s3)cn21` [Example 220], the half-maximal inhibitory concentration (IC50) was 6.8 nM.

Turning to `CC(C)[C@@H]1Cn2cc(-c3nnc(Cc4ccc(F)cc4)s3)c(=O)c(O)c2C(=O)N1C(C)C` [Example 221], the IC50 was 8.4 nM.

Consider `CCOC[C@@H]1Cn2cc(-c3ncc(Cc4ccc(F)cc4)s3)c(=O)c(O)c2C(=O)N1CC` [Example 222], for which the half-inhibitory concentration (IC50) was 6.5 nM.

On to `CC(C)N1C[C@@](C)(C(=O)N2CCC2)n2cc(-c3ncc(Cc4ccc(F)cc4)s3)c(=O)c(O)c2C1=O` [Example 223], for which the IC50 is 12 nM.

As to `CC(C)[C@H]1Cn2cc(-c3nnc(Cc4ccc(F)cc4)s3)c(=O)c(O)c2C(=O)N1C(C)C` [Example 224], the concentration for half-maximal inhibition (IC50) is 7.3 nM.

Take `CC(C)N1C[C@@](C)(C(=O)N2CCCC2)n2cc(-c3ncc(Cc4ccc(F)cc4)s3)c(=O)c(O)c2C1=O` [Example 225]: the IC50 was 18 nM.

Regarding `CCNC(=O)[C@]1(C)CN(C(C)C)C(=O)c2c(O)c(=O)c(-c3ncc(Cc4ccc(F)cc4)s3)cn21` [Example 226], the IC50 was 13 nM.

As to `CNC(=O)[C@]1(C)CN(C(C)C)C(=O)c2c(O)c(=O)c(-c3ncc(Cc4ccc(F)cc4)s3)cn21` [Example 227], the 50% inhibitory concentration (IC50) is 13 nM.

`COC[C@H]1CN(C(C)C)C(=O)c2c(O)c(=O)c(-c3nnc(Cc4cccc(Cl)c4)s3)cn21` [Example 228]: the IC50 was 11 nM.

With `COC[C@H]1CN(C(C)C)C(=O)c2c(O)c(=O)c(-c3nnc(Cc4ccc(Cl)cc4F)s3)cn21` [Example 229], the IC50 is 12 nM.

As for `COC[C@H]1CN(C(C)C)C(=O)c2c(O)c(=O)c(-c3nnc(Cc4ccc(F)cc4Br)s3)cn21` [Example 230], the IC50 was 69 nM.

Consider `COC[C@H]1CN(C(C)C)C(=O)c2c(O)c(=O)c(-c3nnc(Cc4ccc(F)cc4C)s3)cn21` [Example 231], for which the IC50 is 11 nM.

With `COC[C@@H]1[C@H](C)n2cc(-c3nnc(Cc4ccc(F)cc4)s3)c(=O)c(O)c2C(=O)N1C(C)C` [Example 232], the 50% inhibitory concentration (IC50) was 15 nM.

With `CC(C)N1C(=O)c2c(O)c(=O)c(-c3nnc(Cc4ccc(F)cc4)s3)cn2C[C@@H]1C` [Example 233], the IC50 is 6.4 nM.

For `CC(C)N1C[C@@](C)(C(=O)N(C)C)n2cc(-c3ncc(Cc4ccc(F)cc4)s3)c(=O)c(O)c2C1=O` [Example 234], the IC50 was 18 nM.

As for `COCCN(C)C(=O)[C@]1(C)CN(C(C)C)C(=O)c2c(O)c(=O)c(-c3ncc(Cc4ccc(F)cc4)s3)cn21` [Example 235], the IC50 was 16 nM.

`CC(C)N1C[C@](C)(C(=O)N2CCC2)n2cc(-c3ncc(Cc4ccc(F)cc4)s3)c(=O)c(O)c2C1=O` [Example 236]: the IC50 is 13 nM.

In the case of `COC1CN(C(=O)[C@@]2(C)CN(C(C)C)C(=O)c3c(O)c(=O)c(-c4ncc(Cc5ccc(F)cc5)s4)cn32)C1` [Example 237], the concentration for half-maximal inhibition (IC50) is 13 nM.

Regarding `COCC1CN(C(=O)[C@@]2(C)CN(C(C)C)C(=O)c3c(O)c(=O)c(-c4ncc(Cc5ccc(F)cc5)s4)cn32)C1` [Example 238], the IC50 was 18 nM.

Regarding `CCNC(=O)[C@@]1(C)CN(C(C)C)C(=O)c2c(O)c(=O)c(-c3ncc(Cc4ccc(F)cc4)s3)cn21` [Example 239], the IC50 was 16 nM.

`COC[C@H]1CN(C(C)C)C(=O)c2c(O)c(=O)c(-c3nnc(Cc4ccc(OC)cc4)s3)cn21` [Example 240]: the IC50 was 52 nM.

`COC[C@H]1CN(C(C)C)C(=O)c2c(O)c(=O)c(-c3nnc(CCc4ccc(F)cc4)s3)cn21` [Example 241]: the IC50 is 14 nM.

For `COC[C@H]1CN(C(C)C)C(=O)c2c(O)c(=O)c(-c3nnc(CCCc4ccc(F)cc4)s3)cn21` [Example 242], the IC50 is 13 nM.

For `COC[C@H]1CN(C(C)C)C(=O)c2c(O)c(=O)c(-c3nnc(Cc4ccc(F)c(Cl)c4)s3)cn21` [Example 243], the half-inhibitory concentration (IC50) was 7.6 nM.

On to `COC[C@H]1CN(C(C)C)C(=O)c2c(O)c(=O)c(-c3nnc(Cc4ccc(C(F)(F)F)cc4)s3)cn21` [Example 244], for which the half-maximal inhibitory concentration (IC50) was 74 nM.

For `CC(C)N1C[C@@](C)(C(=O)NC2CC2)n2cc(-c3ncc(Cc4ccc(F)cc4)s3)c(=O)c(O)c2C1=O` [Example 245], the IC50 was 8.1 nM.

Take `CC(C)N1C[C@@](C)(C(=O)NCC2CC2)n2cc(-c3ncc(Cc4ccc(F)cc4)s3)c(=O)c(O)c2C1=O` [Example 246]: the concentration for half-maximal inhibition (IC50) is 8.4 nM.

As to `COC[C@@H]1[C@H](C)n2cc(-c3ncc(Cc4ccc(F)cc4)s3)c(=O)c(O)c2C(=O)N1C(C)C` [Example 247], the 50% inhibitory concentration (IC50) is 10 nM.

Regarding `CCN1C[C@@](C)(C(=O)N(C)C)n2cc(-c3ncc(Cc4ccc(F)cc4)s3)c(=O)c(O)c2C1=O` [Example 248], the 50% inhibitory concentration (IC50) is 14 nM.

In the case of `CCNC(=O)[C@]1(C)CN(CC)C(=O)c2c(O)c(=O)c(-c3ncc(Cc4ccc(F)cc4)s3)cn21` [Example 249], the IC50 was 12 nM.

Take `COC[C@H]1CN(C(C)C)C(=O)c2c(O)c(=O)c(-c3nnc(Cc4ccc(F)c(OC)c4)s3)cn21` [Example 250]: the IC50 is 17 nM.

Turning to `COC[C@H]1CN(C(C)C)C(=O)c2c(O)c(=O)c(-c3nnc(Cc4ccc(F)cc4C4CC4)s3)cn21` [Example 251], the IC50 was 11 nM.

Take `CCN1C(=O)c2c(O)c(=O)c(-c3ncc(Cc4ccc(F)cc4)s3)cn2C[C@@]1(C)C(=O)NC` [Example 252]: the concentration for half-maximal inhibition (IC50) is 9.2 nM.

As for `CCN1C(=O)c2c(O)c(=O)c(-c3ncc(Cc4ccc(F)cc4)s3)cn2C[C@@]1(C)C(=O)N(C)C` [Example 253], the IC50 is 7.7 nM.

`CCN1C(=O)c2c(O)c(=O)c(-c3ncc(Cc4ccc(F)cc4)s3)cn2C[C@@]1(C)C(=O)N1CCCC1` [Example 254]: the half-inhibitory concentration (IC50) was 7.6 nM.

On to `C[C@]1(C(=O)N2CCC2)CN(CC2CC2)C(=O)c2c(O)c(=O)c(-c3ncc(Cc4ccc(F)cc4)s3)cn21` [Example 255], for which the half-inhibitory concentration (IC50) is 9 nM.

Regarding `COC[C@H]1[C@@H](C)N(C(C)C)C(=O)c2c(O)c(=O)c(-c3nnc(Cc4ccc(F)cc4)s3)cn21` [Example 256], the IC50 is 8.2 nM.

In the case of `COC[C@@H]1[C@H](C)n2cc(-c3nnc(Cc4ccc(F)cc4)s3)c(=O)c(O)c2C(=O)N1CC1CC1` [Example 257], the concentration for half-maximal inhibition (IC50) was 9.1 nM.

On to `CCN1C(=O)c2c(O)c(=O)c(-c3nnc(Cc4ccc(F)cc4)s3)cn2[C@@H](COC)[C@H]1C` [Example 258], for which the IC50 is 9.3 nM.

Turning to `COC[C@H]1[C@@H](C)N(CC2CC2)C(=O)c2c(O)c(=O)c(-c3nnc(Cc4ccc(F)cc4)s3)cn21` [Example 259], the concentration for half-maximal inhibition (IC50) was 9 nM.

As to `CCN1C(=O)c2c(O)c(=O)c(-c3ncc(Cc4ccc(F)cc4)s3)cn2[C@@H](C)[C@H]1COC` [Example 260], the IC50 is 12 nM.

`CCN1C(=O)c2c(O)c(=O)c(-c3ncc(Cc4ccc(F)cc4)s3)cn2[C@@H](COC)[C@H]1C` [Example 261]: the IC50 is 11 nM.

Consider `COC1CN(C(=O)[C@@]2(C)CN(CC3CC3)C(=O)c3c(O)c(=O)c(-c4ncc(Cc5ccc(F)cc5)s4)cn32)C1` [Example 262], for which the IC50 is 10 nM.

`CCN1C[C@](C)(C(=O)N2CC(OC)C2)n2cc(-c3ncc(Cc4ccc(F)cc4)s3)c(=O)c(O)c2C1=O` [Example 263]: the IC50 was 9 nM.

`CN(C)C(=O)[C@]1(C)CN(C)C(=O)c2c(O)c(=O)c(-c3ncc(Cc4ccc(F)cc4)s3)cn21` [Example 264]: the half-maximal inhibitory concentration (IC50) is 8.5 nM.

For the compound `CCN(C)C(=O)[C@]1(C)CN(C)C(=O)c2c(O)c(=O)c(-c3ncc(Cc4ccc(F)cc4)s3)cn21` [Example 265], the IC50 was 9.3 nM.
